Some test systems named below: HCC-2998 colon; SNB-19 CNS; SR leukemia; SNB-75 CNS; TK-10 renal; RXF 393 renal; UACC-257 melanoma; HL-60(TB) leukemia; SK-MEL-5 melanoma; A498 renal.
Common to all, as to test: NCI anticancer screen, dose series, 48 h

The source of these data is PubChem BioAssay (NCI).

Each structure is given as a SMILES string.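 Protocol summary: plate cells (96-well), add compound at 5 concentrations, incubate 48 h, interpolate endpoints linearly. At the GI50, growth is halved. TGI: concentration producing complete growth inhibition.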

For `CCCCc1c(OC)cc(O)c2c1C(=O)c1[nH]c(C(=O)O)c(O)c(=O)c1C2=O`, the TGI is > 100 µM in the experiment on HCC-2998 colon; 15.1 µM with SNB-19 CNS; 29.3 µM in the experiment with SR leukemia; 27.5 µM in the experiment on SNB-75 CNS; > 100 µM in the experiment on TK-10 renal; 8.25 µM in the experiment with RXF 393 renal. Also, the TGI with UACC-257 melanoma was 46.6 µM; in the experiment with HL-60(TB) leukemia, > 100 µM.

Turning to `COc1cc(C(=O)c2cc(C)c3[nH]c4ccc(Cl)cc4c3c2C)cc(OC)c1OC`, the GI50 with HCC-2998 colon was 0.0548 µM; with SNB-19 CNS, 0.0418 µM; in the experiment on SR leukemia, 0.0493 µM; with SK-MEL-5 melanoma, 0.0361 µM; in the experiment with SNB-75 CNS, 0.0254 µM; in the experiment with TK-10 renal it was 2.71 µM. Moreover, the GI50 in the experiment with A498 renal is 0.0242 µM; in the experiment with UACC-257 melanoma it was 4.28 µM; in the experiment with HL-60(TB) leukemia, 0.0279 µM. Besides, the TGI with HCC-2998 colon worked out at 5.29 µM; with SNB-19 CNS, 19.2 µM; with SR leukemia it was 97.1 µM; with SK-MEL-5 melanoma, 0.196 µM; with SNB-75 CNS, 3.96 µM; with TK-10 renal, 29.4 µM. For the same compound, the TGI with A498 renal stood at 0.0805 µM; in the experiment with UACC-257 melanoma, 32.3 µM; in the experiment on HL-60(TB) leukemia it was 0.0901 µM.

In the case of `COc1ccc(NC(=O)CCc2cc(-c3ccc(O)c(OC)c3)nc(NC#N)n2)cc1`, the TGI with HCC-2998 colon, in the experiment on SNB-19 CNS, in the experiment with SR leukemia, with RXF 393 renal, in the experiment on UACC-257 melanoma and in the experiment on HL-60(TB) leukemia was > 100 µM each time.

Take `COc1ccc(N(C)c2ncnc3occ(C)c23)cc1`: the GI50 in the experiment with HCC-2998 colon is < 0.01 µM; in the experiment with SNB-19 CNS, < 0.01 µM; in the experiment with SR leukemia it was < 0.01 µM; in the experiment with SK-MEL-5 melanoma it was < 0.01 µM; with SNB-75 CNS it was < 0.01 µM; in the experiment on TK-10 renal, 55.6 µM. Also, the GI50 in the experiment on A498 renal was < 0.01 µM; in the experiment on UACC-257 melanoma it was 29.6 µM; in the experiment on HL-60(TB) leukemia, < 0.01 µM. In addition, the TGI in the experiment with HCC-2998 colon is 0.0463 µM; with SNB-19 CNS, > 100 µM; in the experiment on SR leukemia it was 0.236 µM; in the experiment with SK-MEL-5 melanoma, < 0.0149 µM; in the experiment on SNB-75 CNS, > 52 µM; in the experiment on TK-10 renal, > 100 µM. Further, the results for the TGI in the experiment on A498 renal, in the experiment with UACC-257 melanoma and in the experiment with HL-60(TB) leukemia were < 0.01 µM, > 100 µM and < 0.01 µM, respectively.

Turning to `Cc1ccc(SC(C)/C=C/NNC2=NC(c3ccccc3)C(c3ccccc3)=NN2)cc1` (stereo not given), the TGI is 98.2 µM in the experiment on HCC-2998 colon; 65.1 µM in the experiment on SR leukemia; 31.4 µM in the experiment on SK-MEL-5 melanoma; > 100 µM with SNB-75 CNS; > 100 µM in the experiment with TK-10 renal; > 100 µM with A498 renal. The TGI was > 100 µM in the experiment with UACC-257 melanoma and 42.5 µM in the experiment with HL-60(TB) leukemia.

As to `O=S(=O)(Nc1cc(F)cc(Cl)c1)c1ccc(-c2cnc(C3CC3)o2)cc1`, the GI50 in the experiment with HCC-2998 colon is 3.71 µM; in the experiment with SNB-19 CNS, 1.46 µM; in the experiment with SR leukemia, 0.462 µM; with SK-MEL-5 melanoma, 1.83 µM; in the experiment on SNB-75 CNS, 0.344 µM; in the experiment with TK-10 renal, 6.29 µM. In addition, the GI50 with RXF 393 renal is 1.07 µM; in the experiment on UACC-257 melanoma, 13.6 µM; in the experiment with HL-60(TB) leukemia, 0.761 µM. In addition, the TGI with HCC-2998 colon is 18.7 µM; in the experiment with SNB-19 CNS, 16.7 µM; in the experiment on SR leukemia, > 100 µM; in the experiment on SK-MEL-5 melanoma, 11.7 µM; with SNB-75 CNS, 3.33 µM; in the experiment with TK-10 renal, 29.6 µM. The TGI came to 6.93 µM in the experiment on RXF 393 renal, 34.9 µM with UACC-257 melanoma and 24.2 µM with HL-60(TB) leukemia.

Take `CC(O)C(N=Cc1ccccc1[O-])C(=O)[O-].CC(O)C(N=Cc1ccccc1[O-])C(=O)[O-].[Co+2]` (stereo not given): the GI50 is 59.8 µM with HCC-2998 colon; > 100 µM with SNB-19 CNS; 39.7 µM in the experiment on SR leukemia; > 100 µM in the experiment with SNB-75 CNS; > 100 µM in the experiment on TK-10 renal; > 100 µM in the experiment with RXF 393 renal. In addition, the GI50 is > 100 µM in the experiment on UACC-257 melanoma and 39.1 µM with HL-60(TB) leukemia. The TGI in the experiment with HCC-2998 colon, in the experiment on SNB-19 CNS, in the experiment with SR leukemia, with SNB-75 CNS, with TK-10 renal and with RXF 393 renal was > 100 µM each time. The TGI with UACC-257 melanoma and in the experiment with HL-60(TB) leukemia was > 100 µM each time.

`CS(=O)(=O)N/N=C/CN1C(=O)c2ccccc2C1=O`: the TGI in the experiment on HCC-2998 colon, in the experiment on SNB-19 CNS, in the experiment with SR leukemia, with SK-MEL-5 melanoma, with SNB-75 CNS and in the experiment on TK-10 renal was > 100 µM in each case. Besides, the TGI with A498 renal, in the experiment with UACC-257 melanoma and with HL-60(TB) leukemia was > 100 µM each time.

With `COC(=O)c1cc2c3ccccc3n(C(C)=O)c2cn1`, the TGI in the experiment with HCC-2998 colon, in the experiment with SNB-19 CNS, with SR leukemia, in the experiment with SK-MEL-5 melanoma, in the experiment on SNB-75 CNS and in the experiment with TK-10 renal was > 100 µM each time. Further, the figures for the TGI in the experiment on RXF 393 renal, in the experiment with UACC-257 melanoma and in the experiment on HL-60(TB) leukemia were 87.1 µM, > 100 µM and > 100 µM, respectively.
